In ChEMBL document CHEMBL4311992, “Discovery of 3-(((9H-purin-6-yl)amino)methyl)-4,6-dimethylpyridin-2(1H)-one derivatives as novel tubulin polymerization inhibitors for treatment of cancer” (Eur J Med Chem, 2019) one finds IC50, Activity and inhibition data, which are given here for 46 compounds.

For experiment [1], the system named is HCT-116. The experiment can be described thus: cells. To be noted: Homo sapiens, HCT-116, 72 h.
Description: Antiproliferative activity against human HCT116 cells after 72 hrs by MTT assay
Experiment [2] deals with A549. The experiment can be described thus: cells. The note with it: Homo sapiens, A549, 72 h.
Description: Antiproliferative activity against human A549 cells after 72 hrs by MTT assay
Experiment [3] deals with HepG2. The experiment can be described thus: cells. To be noted: Homo sapiens, HepG2, 72 h.
Experiment [4] deals with Tubulin (Sus scrofa) (UniProt P02554+P02550). Briefly: Induction of porcine brain tubulin polymerization at 3 uM by fluorescence assay.
Experiment [5] has as its target Histone-lysine N-methyltransferase EZH2 (Homo sapiens) (UniProt Q15910). Briefly: Inhibition of EZH2 (unknown origin) at 10 uM relative to control.

Molecules are shown by their SMILES. Activity calls are given as the source filed them. No cut-off for these calls is given here.

Chain of Histone-lysine N-methyltransferase EZH2 (Homo sapiens) (Q15910 whole entry, looked up): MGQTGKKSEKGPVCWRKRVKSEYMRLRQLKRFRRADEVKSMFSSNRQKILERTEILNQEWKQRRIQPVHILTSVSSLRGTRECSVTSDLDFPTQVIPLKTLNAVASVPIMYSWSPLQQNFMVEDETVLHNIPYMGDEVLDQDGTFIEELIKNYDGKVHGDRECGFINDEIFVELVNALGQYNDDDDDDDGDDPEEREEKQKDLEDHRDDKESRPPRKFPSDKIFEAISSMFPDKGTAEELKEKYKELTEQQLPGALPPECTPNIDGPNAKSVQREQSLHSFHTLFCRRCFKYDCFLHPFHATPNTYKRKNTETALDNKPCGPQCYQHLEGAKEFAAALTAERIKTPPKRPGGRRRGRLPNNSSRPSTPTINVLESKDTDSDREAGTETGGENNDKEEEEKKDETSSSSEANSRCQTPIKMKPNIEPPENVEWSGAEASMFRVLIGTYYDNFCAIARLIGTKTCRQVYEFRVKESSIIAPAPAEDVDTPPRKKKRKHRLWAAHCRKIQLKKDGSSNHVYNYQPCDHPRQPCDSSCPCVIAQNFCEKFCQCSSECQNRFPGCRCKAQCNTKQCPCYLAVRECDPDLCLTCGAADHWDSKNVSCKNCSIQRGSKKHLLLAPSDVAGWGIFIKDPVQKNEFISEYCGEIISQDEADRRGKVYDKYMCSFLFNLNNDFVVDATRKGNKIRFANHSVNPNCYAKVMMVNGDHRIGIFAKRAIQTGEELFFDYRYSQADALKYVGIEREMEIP
Chain of Tubulin (Sus scrofa) (P02550 whole entry, looked up): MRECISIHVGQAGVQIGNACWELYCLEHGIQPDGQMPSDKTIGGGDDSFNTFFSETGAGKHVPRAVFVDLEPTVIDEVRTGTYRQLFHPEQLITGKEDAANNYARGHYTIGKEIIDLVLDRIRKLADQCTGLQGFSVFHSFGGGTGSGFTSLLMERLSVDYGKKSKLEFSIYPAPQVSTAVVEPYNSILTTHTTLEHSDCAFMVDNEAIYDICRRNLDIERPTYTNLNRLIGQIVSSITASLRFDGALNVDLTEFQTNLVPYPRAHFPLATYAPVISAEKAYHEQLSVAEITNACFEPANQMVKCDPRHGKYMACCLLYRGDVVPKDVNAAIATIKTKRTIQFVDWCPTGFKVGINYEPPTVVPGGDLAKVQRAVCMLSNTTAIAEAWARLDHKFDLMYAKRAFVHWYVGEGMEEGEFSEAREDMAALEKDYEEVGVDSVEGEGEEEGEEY
Chain of Tubulin (Sus scrofa) (P02554 whole entry, looked up): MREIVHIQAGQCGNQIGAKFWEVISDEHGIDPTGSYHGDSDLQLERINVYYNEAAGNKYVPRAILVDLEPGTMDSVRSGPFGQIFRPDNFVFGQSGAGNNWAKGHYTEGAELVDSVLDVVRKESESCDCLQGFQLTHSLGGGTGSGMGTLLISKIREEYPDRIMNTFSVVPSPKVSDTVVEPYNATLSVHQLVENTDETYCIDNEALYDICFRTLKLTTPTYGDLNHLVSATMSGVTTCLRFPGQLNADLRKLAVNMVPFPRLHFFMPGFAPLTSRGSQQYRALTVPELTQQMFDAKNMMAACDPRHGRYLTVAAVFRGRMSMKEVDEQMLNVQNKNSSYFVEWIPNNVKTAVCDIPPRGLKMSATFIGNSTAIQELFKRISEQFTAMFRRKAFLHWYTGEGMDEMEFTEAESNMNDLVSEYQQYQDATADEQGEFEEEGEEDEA

`Cc1cc(C)c(CNc2nc(-c3ccc(OC(F)(F)F)cc3)nc3c2ncn3C2CCCCO2)c(=O)[nH]1` (stereo not drawn): the half-maximal inhibitory concentration (IC50) in experiment [1] was 5.83 µM; in experiment [2] it was 9.46 µM; in experiment [3], 5.22 µM.

On to `Cc1cc(C)c(CNc2nc(-c3ccc(CN4CCOCC4)cc3)nc3c2ncn3C2CCCCO2)c(=O)[nH]1` (stereo not drawn), for which the IC50 in experiment [1], in experiment [2] and in experiment [3] was > 10 µM each time.

Take `Cc1cc(C)c(CNc2nc(-c3ccc(N4CCN(C(=O)OC(C)(C)C)CC4)nc3)nc3c2ncn3C2CCCC2)c(=O)[nH]1`: the IC50 was 1.01 µM in experiment [1], > 10 µM in experiment [2] and 1.62 µM in experiment [3].

`Cc1cc(C)c(CNc2nc(-c3ccc(N4CCN(C(=O)OC(C)(C)C)CC4)nc3)nc3c2ncn3C(C)C)c(=O)[nH]1`: the IC50 was 4.14 µM in experiment [1], 0.49 µM in experiment [2] and > 10 µM in experiment [3].

For the compound `Cc1cc(C)c(CNc2nc(-c3cccc(N4CCOCC4)c3)nc3c2ncn3C2CCCCO2)c(=O)[nH]1` (stereo not drawn), the figures for the IC50 in experiment [1], in experiment [2] and in experiment [3] were 8.27 µM, > 10 µM and 6.67 µM, respectively.

On to `CCC(CC)n1cnc2c(NCc3c(C)cc(C)[nH]c3=O)nc(-c3ccc(N4CCN(C(=O)OC(C)(C)C)CC4)nc3)nc21`, for which the concentration for half-maximal inhibition (IC50) stood at 0.88 µM in experiment [1], 8.21 µM in experiment [2] and 0.52 µM in experiment [3].

Regarding `CCC(CC)n1cnc2c(NCc3c(C)cc(C)[nH]c3=O)nc(-c3ccc(CN4CCOCC4)cc3)nc21`, the half-inhibitory concentration (IC50) in experiment [1] amounted to 2.99 µM; in experiment [2], 6.13 µM; in experiment [3], 1.82 µM.

For `CC(=O)O[C@H]1C(=O)[C@@]2(C)[C@H]([C@H](OC(=O)c3ccccc3)[C@]3(O)C[C@H](OC(=O)[C@H](O)[C@@H](NC(=O)c4ccccc4)c4ccccc4)C(C)=C1C3(C)C)[C@]1(OC(C)=O)CO[C@@H]1C[C@@H]2O`, the outcome in experiment [4] was Active.

Consider `CCC(CC)n1cnc2c(NCc3c(C)cc(C)[nH]c3=O)nc(-c3cccc(N4CCOCC4)c3)nc21`, for which the 50% inhibitory concentration (IC50) was > 10 µM in experiment [1], > 10 µM in experiment [2] and 2.22 µM in experiment [3].

With `Cc1cc(C)c(CNc2nc(-c3ccc(N4CCNCC4)nc3)nc3[nH]cnc23)c(=O)[nH]1`, the IC50 in experiment [1] was 2.65 µM; in experiment [2] it was > 10 µM; in experiment [3], 6.02 µM.

Turning to `Cc1cc(C)c(CNc2nc(-c3ccc(OC(F)(F)F)cc3)nc3c2ncn3C(C)C)c(=O)[nH]1`, the 50% inhibitory concentration (IC50) in experiment [1] was determined as 0.55 µM; in experiment [2], 9.31 µM; in experiment [3] it was 2.47 µM.

Regarding `Cc1cc(C)c(CNc2nc(-c3ccc(N4CCN(C)CC4)nc3)nc3[nH]cnc23)c(=O)[nH]1`, the IC50 in experiment [1], in experiment [2] and in experiment [3] was > 10 µM in each case.

As to `Cc1cc(C)c(CNc2nc(-c3ccc(N4CCNCC4)nc3)nc3c2ncn3C(C)C)c(=O)[nH]1`, in experiment [5], the inhibition is -4%. Further, the IC50 in experiment [1] is 1.19 µM; in experiment [2] it was > 10 µM; in experiment [3], 2.88 µM.

`CCC(CC)n1cnc2c(NCc3c(C)cc(C)[nH]c3=O)nc(-c3ccc(N4CCNCC4)nc3)nc21`: the 50% inhibitory concentration (IC50) in experiment [1] was 3.94 µM; in experiment [2], 6.13 µM; in experiment [3], 5.72 µM.

Turning to `Cc1cc(C)c(CNc2nc(-c3ccc(N4CCOCC4)cc3)nc3c2ncn3C2CCCCO2)c(=O)[nH]1` (stereo not drawn), the IC50 in experiment [1], in experiment [2] and in experiment [3] was > 10 µM throughout.

Take `Cc1cc(C)c(CNc2nc(-c3ccc(CN4CCOCC4)cc3)nc3[nH]cnc23)c(=O)[nH]1`: the IC50 in experiment [1], in experiment [2] and in experiment [3] was > 10 µM each time.

As to `Cc1cc(C)c(CNc2nc(-c3ccc(N4CCN(C)CC4)nc3)nc3c2ncn3C2CCCCO2)c(=O)[nH]1` (stereo not drawn), the IC50 in experiment [1] was 9.05 µM; in experiment [2], > 10 µM; in experiment [3] it was > 10 µM.

Turning to `Cc1cc(C)c(CNc2nc(-c3ccc(N4CCN(C)CC4)cc3)nc3[nH]cnc23)c(=O)[nH]1`, the IC50 in experiment [1] was > 10 µM; in experiment [2], > 10 µM; in experiment [3], 9.83 µM.

Regarding `Cc1cc(C)c(CNc2nc(-c3cccc(N4CCOCC4)c3)nc3c2ncn3C2CCCC2)c(=O)[nH]1`, the IC50 in experiment [1] was determined as 5.32 µM; in experiment [2], 2.65 µM; in experiment [3] it was 0.89 µM.

On to `Cc1cc(C)c(CNc2nc(-c3ccc(N4CCN(C)CC4)nc3)nc3c2ncn3C2CCCC2)c(=O)[nH]1`, for which the IC50 in experiment [1] is > 10 µM; in experiment [2], 5.17 µM; in experiment [3], 7.63 µM.

`CCC(CC)n1cnc2c(NCc3c(C)cc(C)[nH]c3=O)nc(-c3ccc(OC(F)(F)F)cc3)nc21`: the IC50 in experiment [1] is 0.78 µM; in experiment [2] it was 5.38 µM; in experiment [3], 1.42 µM.

Regarding `CCC(CC)n1cnc2c(NCc3c(C)cc(C)[nH]c3=O)nc(-c3ccc(N4CCN(C)CC4)nc3)nc21`, the figures for the 50% inhibitory concentration (IC50) in experiment [1], in experiment [2] and in experiment [3] were 0.65 µM, > 10 µM and 0.82 µM, respectively.

Take `Cc1cc(C)c(CNc2nc(-c3ccc(N4CCOCC4)cc3)nc3[nH]cnc23)c(=O)[nH]1`: the 50% inhibitory concentration (IC50) was 5.66 µM in experiment [1], > 10 µM in experiment [2] and 4.74 µM in experiment [3].

For `Cc1cc(C)c(CNc2nc(-c3cccc(N4CCOCC4)c3)nc3c2ncn3C(C)C)c(=O)[nH]1`, the IC50 in experiment [1] was 7.42 µM; in experiment [2], > 10 µM; in experiment [3], > 10 µM.

As for `Cc1cc(C)c(CNc2nc(-c3ccc(N4CCN(C(=O)OC(C)(C)C)CC4)nc3)nc3c2ncn3C2CCCCO2)c(=O)[nH]1` (stereo not drawn), the values for the IC50 in experiment [1], in experiment [2] and in experiment [3] were 9.07 µM, > 10 µM and > 10 µM, respectively.

`Cc1cc(C)c(CNc2nc(-c3ccc(OC(F)(F)F)cc3)nc3c2ncn3C2CCCC2)c(=O)[nH]1`: the IC50 in experiment [1] is 7.55 µM; in experiment [2], > 10 µM; in experiment [3], 6.21 µM.

Consider `Cc1cc(C)c(CNc2nc(-c3ccc(N4CCOCC4)cc3)nc3c2ncn3C2CCCC2)c(=O)[nH]1`, for which the 50% inhibitory concentration (IC50) is 0.52 µM in experiment [1], > 10 µM in experiment [2] and 0.98 µM in experiment [3].

Turning to `Cc1cc(C)c(CNc2nc(-c3ccccc3F)nc3c2ncn3C2CCCCO2)c(=O)[nH]1` (stereo not drawn), the IC50 in experiment [1], in experiment [2] and in experiment [3] was > 10 µM in each case.

Take `Cc1cc(C)c(CNc2nc(-c3ccc(N4CCN(C)CC4)nc3)nc3c2ncn3C(C)C)c(=O)[nH]1`: the concentration for half-maximal inhibition (IC50) in experiment [1] is 8.99 µM; in experiment [2] it was > 10 µM; in experiment [3], > 10 µM.

Take `Cc1cc(C)c(CNc2nc(-c3ccc(N4CCOCC4)cc3)nc3c2ncn3C(C)C)c(=O)[nH]1`: the IC50 in experiment [1] is 1.03 µM; in experiment [2], 4.3 µM; in experiment [3], 1.11 µM.

As for `CCC(CC)n1cnc2c(NCc3c(C)cc(C)[nH]c3=O)nc(Cl)nc21`, the inhibition in experiment [5] turned out to be 0.5%. The IC50 in experiment [1] was determined as 1.33 µM; in experiment [2], 1.51 µM; in experiment [3], 0.2 µM.

For `Cc1cc(C)c(CNc2ncnc3c2ncn3C2CCCC2)c(=O)[nH]1`, the IC50 is 1.05 µM in experiment [1] and > 10 µM in experiment [2].

Regarding `Cc1cc(C)c(CNc2nc(-c3ccc(CN4CCOCC4)cc3)nc3c2ncn3C(C)C)c(=O)[nH]1`, the IC50 in experiment [1] was 8.01 µM; in experiment [2], > 10 µM; in experiment [3], 0.93 µM.

For the compound `COc1ccc(CNc2nc(NCc3ccc(OC)cc3)c3ncn(C(C)C)c3n2)cc1` [MYOSEVERIN], the values for the IC50 in experiment [1], in experiment [2] and in experiment [3] were 7.82 µM, > 10 µM and 3.06 µM, respectively.

Turning to `Cc1cc(C)c(CNc2nc(-c3ccc(N4CCN(C)CC4)cc3)nc3c2ncn3C(C)C)c(=O)[nH]1`, the values for the IC50 in experiment [1], in experiment [2] and in experiment [3] were 7.93 µM, 4.72 µM and 5.81 µM, respectively.

On to `CCC(CC)n1cnc2c(NCc3c(C)cc(C)[nH]c3=O)nc(-c3ccc(N4CCOCC4)cc3)nc21`, for which the inhibition in experiment [5] was -3%. Moreover, the IC50 is > 10 µM in experiment [1], 5.9 µM in experiment [2] and 1.54 µM in experiment [3].

Regarding `Cc1cc(C)c(CNc2nc(-c3ccc(N4CCNCC4)nc3)nc3c2ncn3C2CCCC2)c(=O)[nH]1`, the IC50 in experiment [1] was 0.85 µM; in experiment [2] it was > 10 µM; in experiment [3] it was 1.71 µM.

On to `Cc1cc(C)c(CNc2nc(-c3ccc(OC(F)(F)F)cc3)nc3[nH]cnc23)c(=O)[nH]1`, for which the IC50 in experiment [1] was 1.08 µM; in experiment [2] it was > 10 µM; in experiment [3] it was 1.29 µM.

For `Cc1cc(C)c(CNc2nc(-c3ccccc3F)nc3[nH]cnc23)c(=O)[nH]1`, the figures for the concentration for half-maximal inhibition (IC50) in experiment [1], in experiment [2] and in experiment [3] were 6.91 µM, > 10 µM and 6.89 µM, respectively.

For `Cc1cc(C)c(CNc2nc(Cl)nc3c2ncn3C2CCCCO2)c(=O)[nH]1` (stereo not drawn), the results for the half-inhibitory concentration (IC50) in experiment [1], in experiment [2] and in experiment [3] were 2.71 µM, 1.93 µM and 0.41 µM, respectively.

For the compound `CCC(CC)n1cnc2c(NCc3c(C)cc(C)[nH]c3=O)nc(-c3ccc(N4CCN(C)CC4)cc3)nc21`, the results for the IC50 in experiment [1], in experiment [2] and in experiment [3] were > 10 µM, 5.09 µM and 1.99 µM, respectively.

Take `Cc1cc(C)c(CNc2nc(-c3ccc(N4CCN(C)CC4)cc3)nc3c2ncn3C2CCCC2)c(=O)[nH]1`: the figures for the IC50 in experiment [1], in experiment [2] and in experiment [3] were 1.37 µM, 6.21 µM and 2.59 µM, respectively.

On to `Cc1cc(C)c(CNc2nc(-c3ccc(CN4CCOCC4)cc3)nc3c2ncn3C2CCCC2)c(=O)[nH]1`, for which the concentration for half-maximal inhibition (IC50) in experiment [1] was 2.46 µM; in experiment [2], > 10 µM; in experiment [3], 1.93 µM.

As for `Cc1cc(C)c(CNc2nc(Cl)nc3c2ncn3C(C)C)c(=O)[nH]1`, the IC50 was 1.86 µM in experiment [1], 1.13 µM in experiment [2] and 0.15 µM in experiment [3].

For `Cc1cc(C)c(CNc2nc(-c3ccc(N4CCN(C)CC4)cc3)nc3c2ncn3C2CCCCO2)c(=O)[nH]1` (stereo not drawn), the concentration for half-maximal inhibition (IC50) in experiment [1], in experiment [2] and in experiment [3] was > 10 µM in each case.

Take `Cc1cc(C)c(CNc2nc(-c3cccc(N4CCOCC4)c3)nc3[nH]cnc23)c(=O)[nH]1`: the figures for the IC50 in experiment [1], in experiment [2] and in experiment [3] were 6.84 µM, > 10 µM and 5.19 µM, respectively.
